# Test results published in patent US20030228256A1, “Methods of achieving transplantation tolerance through radioablation of hemolymphopoietic cell populations” (priority 2002, published 2003).
# Where two headings read alike, the source gives them in different places.
# Key:
# [1] = system: white blood cell counts (WBC), hemolymphopoietic elements; experiment: Blood counts (WBC, RBC, Hb, PLT) after single IV dose of 153Sm-EDTMP; assay type: in vivo, C57BL/6 mice; parameters: time at which myelodepression occurred: unit not given here
# Method: (§1) Bone marrow-derived Cell Transplantation. Balb/c mice, 8-9 weeks old, used as donors, were sacrificed on the day of the transplant. Bone marrow cells (BMC) were prepared according to a previously published regimen. Briefly, after removing femura and tibiae, and cleaning them from muscle tissue and cartilage, BMC were flushed with sterile RPMI-1640 (Mediatech, Inc, Herndon, Va.) supplemented with 0.8 mg/ml Gentamycin (Gibco, Gaithersburg, Md.), using 23G needle. BMC were filtered through a sterile nylon mesh and counted. Fully MCH-mismatched C57BL/6 recipients, 9-10 weeks of age, were injected intravenously with either 20×10^6 or 100×10^6 unmanipulated BMCs resuspended in 0.5 and 1.0 ml of HBSS Hank's Balanced Saline Solution) (Mediatech) respectively, on either day 7 or 14. Tolerance induction protocol consisted of either 150 or 500 μCi of ^153Sm-EDTMP (Berlex Laboratories Wayne, N.J.), I.V., on day—7, and 0.5 mg hamster anti-murine CD154 mAb (MR-1), purchased from Taconic (Germantown, N.Y.) administered intraperitoneally (I.P.) on days—1,0,7,14, 21 and 28.
# Recipient animals (C57BL/6, H-2^b) were treated with a single IV dose of ^153Sm-EDTMP, 150 μCi or 500 μCi, prior to administration of 20×10^6 or 100×10^6 allogenic donor bone marrow cells (BMC) (BALB/c, H-2^d), also administered as a single IV dose. BMC transplantation (BMC-Tx) was performed on day 7 or 14 following the administration of ^153Sm in the presence of transient T lymphocyte co-stimulatory blockade by MR-1 (hamster anti-murine CD154 mAb) on days—1, 0, 7, 14, 21 and 28, 0.5 mg IP. […] Similar data were obtained in animals treated with ^153Sm-EDTMP and not transplanted with allogeneic BMC (not shown). […] No dramatic alterations of RBC, PLT or Hb counts were evident.
# [2] = system: donor-derived cells (BALB/c BMC) in recipients; experiment: Hemolymphopoietic chimerism: percentage of donor-derived cells in recipient PBL by flow cytometry after allogeneic BMC-Tx; assay type: in vivo, C57BL/6 mice
# Method: as §1
# Immunohemotyping of chimeras. Engraftment of donor-derived BMCs was ascertained by flow cytometric analysis (FCM) of recipient peripheral blood mononuclear cells (PBMCs), splenocytes, thymocytes and bone marrow cells after staining with FITC-conjugated anti-mouse H-2K^b or H-2K^d and Cy-Chrome-conjugated CD3 monoclonal antibodies (mAbs) purchased from PharMingen (San Diego, Calif.) at multiple time points during the experiment as well as at sacrifice. Cells were also assessed for non-specific staining using an Ig isotype control (FITC-conjugated mouse IgG2a and Cy-Chrome-conjugated rat IgG2b), and the percentage of cells stained with this Ab was subtracted from the values obtained from staining with the specific Ab to determine the relative number of positive cells. Reconstitution of various cell lineages was assessed using FITC-conjugated anti-mouse H-2K^b or H-2K^d and PE-conjugated anti-mouse CD19/CD22 in the B cell, PE-conjugated anti-mouse Ly-6G in the granulocyte, and PE-conjugated anti-mouse Mac-3 in the macrophage compartments. Recipient animals were first tested 1 week after BMC-Tx, every 2 weeks up to 6 weeks, and every 4 weeks thereafter. Purified anti-mouse CD16/CD32 (FcγIII/II) was used to block non-specific binding to the Fc receptors. FCM analyses were preformed using CellQuest software on a FACScan cytometer purchased from Becton Dickinson & Co. (Mountain View, Calif.).
# Typing of PBL obtained from the recipient animals starting at 2 weeks following the reconstitution with donor-derived BM allogeneic cells, every two weeks up to 6 weeks post-reconstitution, and every 4 weeks afterwards was performed using anti Class I H-2^b-FITC and H-2^d-FITC. Analysis was performed on the lymphoid gate, and the values were normalized to 100%.
# [3] = system: donor-specific (Balb/c) and third party (C3H) skin grafts
# Method: Full-thickness skin donor (Balb/c) and third party (C3H/HeJ) grafts were transplanted onto the lateral thoracic area of the recipients either the day following BMC-Tx, or 4 weeks following the last administration of MR-1 mAb, using techniques described previously. Briefly, square, full-thickness skin grafts (1 cm^2) were prepared from the tail skin of donors. Graft beds were prepared on the right (donor-specific) and left (third party) lateral thoracic wall of recipient mice. Grafts were fixed to the beds with 4 sutures of 5.0 silk at the corners of the graft and covered with a petroleum jelly-coated gauze and a plaster cast. The grafts were first inspected on the eighth-day following grafting, and every third day thereafter. Graft rejection was considered complete when no viable graft tissue was detected by visual inspection. Recipient mice were considered to be tolerant when donor-specific skin grafts survived in perfect condition for <150 days.
# Grafts were prepared 30 days following the last administration of anti-CD154 mAb in the treated animals. Two different donor strain combinations, BALB/c (H-2^d), and C3H/J (H-2^k) were used. Each recipient received skin grafts from both strains: donor-type, BALB/c (H-2^d), as well as third-party, C3H/J (H-2^k). […] Grafts were followed for a minimum of 128 days and were considered rejected when viable tissue was no longer detected at the transplant site.
smiles,measurement,setting,value
O=P([O-])(O)CN(CCN(CP(=O)([O-])O)CP(=O)(O)O)CP(=O)([O-])O.[153Sm+3] [^153Sm-EDTMP],reversibility of myelodepression of the WBC compartment,[1]; in the presence or absence of allogeneic BMC-Tx,spontaneously reversible
same,"effect on red blood cell (RBC), hemoglobin (Hb) and platelet (PLT) counts",[1]; single IV dose 150 or 500 μCi,does not have significant effect
same,time at which myelodepression occurred,[1]; single IV dose 150 or 500 μCi,one
same,time by which myelodepression spontaneously resolved,[1]; single IV dose 150 or 500 μCi,4-6 weeks post-administration
same,myelodepression (decreased white blood cell counts),"[1]; single IV dose 150 or 500 μCi, FIG. 1",transient myelodepression
same,CD3+ T lymphocytes of donor origin (mixed chimerism of lymphoid lineage),"[2]; 20×10^6 BMC, anti-CD154 mAb, 153Sm-EDTMP 150 or 500 μCi",CD3+ T lymphocytes of donor origin were also present
same,chimerism levels with versus without 153Sm administration,"[2]; 100×10^6 BMC, anti-CD154 mAb",reproducibly higher
same,CD3+ T lymphocytes of donor origin (mixed chimerism of lymphoid lineage),"[2]; 100×10^6 BMC, anti-CD154 mAb, 153Sm-EDTMP 150 or 500 μCi",CD3+ T lymphocytes of donor origin were also present
same,BM engraftment,"[2]; 100×10^6 BMC, anti-CD154 mAb, 153Sm-EDTMP 150 or 500 μCi, BMC on day 7 or 14, FIG. 2",BM engraftment in all recipient animals analyzed
same,chimerism in recipients of allogeneic BMC,"[2]; absence of co-stimulatory blockade, 20×10^6 or 100×10^6 BMC, FIGS. 4-5",transient chimerism
same,"multilineage chimerism (B cells, NK, granulocytes)","[2]; combination of BMC-Tx, 153Sm-EDTMP and anti-CD154 mAb, FIGS. 7 and 8","long-term, stable multilineage chimerism"
same,chimerism in recipients of allogeneic BMC,[2]; in the presence of costimulatory blockade (anti-CD154 mAb),long-lasting hemolymphopoietic chimerism
same,chimerism across a full allogeneic barrier,[2]; single administration prior to infusion of allogeneic bone marrow-derived cells,high levels of stable long-term chimerism
same,effectiveness of lower dose 150 μCi versus higher dose 500 μCi,[2]; with BMC-Tx and MR-1 co-stimulatory blockade,as effective as the higher dose
same,influence of 153Sm dose (150 vs 500 μCi) and timing of BMC-Tx on chimerism,[2]; with costimulatory blockade,do not grossly influence the results
same,third party (C3H/J) skin graft outcome,"[3]; 20×10^6 BMC, 153Sm-EDTMP and anti-CD154 mAb",rejected within the same time frame as were donor-specific grafts placed on naïve recipients
same,tolerance to donor-specific skin grafts,"[3]; 20×10^6 BMC, 153Sm-EDTMP and anti-CD154 mAb, FIG. 9",tolerance to donor-specific skin grafts is obtained
same,third party (C3H/J) skin graft outcome,"[3]; 100×10^6 BMC, 153Sm-EDTMP and anti-CD154 mAb",rejected within the same time frame as were donor-specific grafts placed on naïve recipients
same,enhancing effect of 153Sm administration on graft survival,"[3]; 100×10^6 BMC, anti-CD154 mAb, FIG. 10",lost
same,time donor-derived skin grafts were kept,"[3]; a large percent of animals, followed up to 31 weeks post bone marrow transplantation, with anti-CD154 mAb",> 150 days
